Seven compounds from patent US9617256B2 (priority 2007, dated 2017) can be followed below.

Values after ≈ are worked out from the molar mass of the structure shown. Where two headings read alike, the source gives them in different places. Where only a bound is given, the exact number is not on record here.

One test has as its system APAE001 (ATCC27853). In words: MIC broth microdilution, APAE001. It is filed as cell-based, P. aeruginosa. The following applies: Pseudomonas aeruginosa, ATCC27853, read-out: MIC APAE001, APAE001 (ATCC27853). On the procedure: (§1) Bacterial isolates were cultivated from −70° C. frozen stocks by overnight passages at 35° C. in ambient air on Mueller-Hinton agar (Beckton Dickinson, Franklin Lakes, N.J.). Clinical isolates tested were obtained from various geographically diverse hospitals in the US and abroad (Focus Diagnostics, Herndon, Va. and JMI, North Liberty, Iowa). Quality control strains were from the American Type Culture Collection (ATCC; Rockville, Md.). Additional primary panel strains were generated using standard molecular biology techniques.
(§2) Minimum Inhibitory Concentrations (MICs) were determined by the broth microdilution method in accordance with the Clinical and Laboratory Standards Institute (CLSI) guidelines. In brief, organism suspensions were adjusted to a 0.5 McFarland standard to yield a final inoculum between 3×10^5 and 7×10^5 colony-forming units (CFU)/mL. Drug dilutions and inocula were made in sterile, cation adjusted Mueller-Hinton Broth (Beckton Dickinson). An inoculum volume of 100 μL was added to wells containing 100 μL of broth with 2-fold serial dilutions of drug. All inoculated microdilution trays were incubated in ambient air at 35° C. for 18-24 hours. […] Performance of the assay was monitored by the use of laboratory quality-control strains and levofloxacin, a compound with a defined MIC spectrum, in accordance with CLSI guidelines.
(§3) *AECO001 is ATCC25922, AECO063 is ATCC25922 bearing an acrAB mutation, APAE001 is ATCC27853, APAE006 is a strain of P. aeruginosa in which all efflux pumps are inactivated, APAE006+PMBN indicates MICs with the indicated strain in the presence of 8 micrograms per milliliter of polymyxin B nonapeptide, AABA1060 is a clinical isolate of Acinetobacter baumannii, ASAU001 is a laboratory strain of S. aureus (ATCC29213).
For orientation: In broth dilution the organism is exposed to a series of concentrations in liquid medium.

Test [1] deals with AABA1060 (clinical isolate of Acinetobacter baumannii). In words: MIC broth microdilution, AABA1060. It is filed as cell-based. The settings on record: Acinetobacter baumannii, read-out: MIC AABA1060. On the procedure: as §1, §2, §3
For test [2], the system named is APAE006 in the presence of 8 micrograms per milliliter of polymyxin B nonapeptide. The format is cell-based, P. aeruginosa. The following applies: APAE006 with 8 micrograms per milliliter polymyxin B nonapeptide. On the procedure: as §1, §2, §3
The subject of test [3] is APAE006 (strain of P. aeruginosa in which all efflux pumps are inactivated). In words: microbe, parasite or virus in culture. It is filed as cell-based. The following applies: Pseudomonas aeruginosa, read-out: MIC APAE006, APAE006, all efflux pumps inactivated. On the procedure: as §1, §2, §3
The test system of test [4] is ASAU001 (laboratory strain of S. aureus, ATCC29213). In words: MIC broth microdilution, ASAU001. The format is cell-based. The following applies: Staphylococcus aureus, ATCC29213, read-out: MIC ASAU001. On the procedure: as §1, §2, §3
In a further test the test system is AECO001 (ATCC25922). Description: MIC broth microdilution, AECO001. The format is cell-based, E. coli. The settings on record: Escherichia coli. On the procedure:
as §1, §2, §3

In test [5] the test system is AECO063 (ATCC25922 bearing an acrAB mutation). Description: microbe, parasite or virus in culture. It is filed as cell-based, E. coli. The settings on record: Escherichia coli, ATCC25922, read-out: MIC AECO063. On the procedure:
as §1, §2, §3

Where [6] appears, read: ATCC25922, read-out: MIC AECO001.
The mark [7] stands for this setting: ATCC25922, read-out: MIC AECO001 HSA AGP.

As for `C[C@@H](N)[C@H](NC(=O)c1ccc(C#CC#Cc2ccc(NS(C)(=O)=O)cc2)cc1)C(=O)NO` [Example 93-1, N-((2S,3R)-3-amino-1-(hydroxyamino)-1-oxobutan-2-yl)-4-((4-(methylsulfonamido)phenyl)buta-1,3-diynyl)benzamide], the MIC in the test with APAE001 (ATCC27853) was below 2 µg/mL; in test [1], below 2 µg/mL; in test [3] it was below 2 µg/mL; in test [4], 16 to 64 µg/mL (≈ 35.2 to 141 µM); in the test with AECO001 (ATCC25922) (setting [6]) it was below 2 µg/mL; in the test with AECO001 (ATCC25922) (setting [7]) it was 16 to 64 µg/mL (≈ 35.2 to 141 µM). Also, in test [5], the MIC was below 2 µg/mL. In test [2], the “MIC APAE006 + PMBN” value is given as “A (MIC's of 2.0 μg/mL or less = A)”.
Regarding `CC(C)(N)[C@@H](NC(=O)c1ccc(C#CC#CC2CC2)cc1)C(=O)NO` [Example 91-11], the MIC is 2 to 16 µg/mL (≈ 5.89 to 47.1 µM) with APAE001 (ATCC27853); 16 to 64 µg/mL (≈ 47.1 to 189 µM) in test [1]; below 2 µg/mL in test [3]; 16 to 64 µg/mL (≈ 47.1 to 189 µM) in test [4]; below 2 µg/mL in the test with AECO001 (ATCC25922) (setting [6]); 16 to 64 µg/mL (≈ 47.1 to 189 µM) in the test on AECO001 (ATCC25922) (setting [7]). In addition, in test [5], the MIC was below 2 µg/mL. Moreover, the “MIC APAE006 + PMBN” value in test [2] was “A (MIC's of 2.0 μg/mL or less = A)”.
As to `CC(C)(N)[C@H](NC(=O)c1ccc(C#CC#Cc2cncnc2)cc1)C(=O)NO` [Example 89-6], the MIC in the test with APAE001 (ATCC27853) is below 2 µg/mL; in test [1] it was 2 to 16 µg/mL (≈ 5.3 to 42.4 µM); in test [3], below 2 µg/mL; in test [4], 16 to 64 µg/mL (≈ 42.4 to 170 µM); in the test on AECO001 (ATCC25922) (setting [6]), 2 to 16 µg/mL (≈ 5.3 to 42.4 µM); in the test on AECO001 (ATCC25922) (setting [7]), 2 to 16 µg/mL (≈ 5.3 to 42.4 µM). Moreover, in test [5], the MIC was below 2 µg/mL. In addition, in test [2], the “MIC APAE006 + PMBN” value is “A (MIC's of 2.0 μg/mL or less = A)”.
As to `C[C@@H](N)[C@H](NC(=O)c1ccc(C#CC(O)c2ccc(CN3CCOCC3)cc2)cc1)C(=O)NO` (some centres unmarked) [Example 137-17], the MIC in the test on APAE001 (ATCC27853) was 16 to 64 µg/mL (≈ 34.3 to 137 µM); in test [1] it was 16 to 64 µg/mL (≈ 34.3 to 137 µM); in test [3], 2 to 16 µg/mL (≈ 4.29 to 34.3 µM); in test [4], 16 to 64 µg/mL (≈ 34.3 to 137 µM); in the test with AECO001 (ATCC25922) (setting [6]), 16 to 64 µg/mL (≈ 34.3 to 137 µM); in the test on AECO001 (ATCC25922) (setting [7]), 16 to 64 µg/mL (≈ 34.3 to 137 µM). Besides, the MIC in test [5] lay in the range of 16 to 64 µg/mL (≈ 34.3 to 137 µM). For the same compound, the “MIC APAE006 + PMBN” value in test [2] was “A (MIC's of 2.0 μg/mL or less = A)”.
As for `C[C@@H](N)[C@H](NC(=O)c1ccc(C#CC#Cc2ccc(CNCCF)cc2)cc1)C(=O)NO` [Example 86-5], the MIC is below 2 µg/mL in the test on APAE001 (ATCC27853); 2 to 16 µg/mL (≈ 4.58 to 36.7 µM) in test [1]; below 2 µg/mL in test [3]; 16 to 64 µg/mL (≈ 36.7 to 147 µM) in test [4]; below 2 µg/mL in the test on AECO001 (ATCC25922) (setting [6]); 16 to 64 µg/mL (≈ 36.7 to 147 µM) with AECO001 (ATCC25922) (setting [7]). Also, in test [5], the MIC is below 2 µg/mL. The “MIC APAE006 + PMBN” value in test [2] is on record as “A (MIC's of 2.0 μg/mL or less = A)”.
`C[C@@H](N)[C@H](NC(=O)c1ccc(C#CC#Cc2cncnc2)cc1)C(=O)NO` [Example 89-4]: the MIC was 2 to 16 µg/mL (≈ 5.5 to 44 µM) in the test on APAE001 (ATCC27853); 16 to 64 µg/mL (≈ 44 to 176 µM) in test [1]; below 2 µg/mL in test [3]; 16 to 64 µg/mL (≈ 44 to 176 µM) in test [4]; 16 to 64 µg/mL (≈ 44 to 176 µM) in the test on AECO001 (ATCC25922) (setting [6]); 16 to 64 µg/mL (≈ 44 to 176 µM) in the test with AECO001 (ATCC25922) (setting [7]). For the same compound, the MIC in test [5] is 2 to 16 µg/mL (≈ 5.5 to 44 µM). Besides, the “MIC APAE006 + PMBN” value in test [2] was “A (MIC's of 2.0 μg/mL or less = A)”.
On to `C[C@@H](N)[C@H](NC(=O)c1ccc(C#CC#C[C@H](C)N2CCOCC2)cc1)C(=O)NO` [Example 92-2, N-((2S,3R)-3-amino-1-(hydroxyamino)-1-oxobutan-2-yl)-4-((S)-5-morpholinohexa-1,3-diynyl)benzamide], for which the MIC with APAE001 (ATCC27853) lay within 16 to 64 µg/mL (≈ 40.2 to 161 µM); in test [1], 16 to 64 µg/mL (≈ 40.2 to 161 µM); in test [3], 2 to 16 µg/mL (≈ 5.02 to 40.2 µM); in test [4] it was 16 to 64 µg/mL (≈ 40.2 to 161 µM); with AECO001 (ATCC25922) (setting [6]), 16 to 64 µg/mL (≈ 40.2 to 161 µM); in the test with AECO001 (ATCC25922) (setting [7]), 16 to 64 µg/mL (≈ 40.2 to 161 µM). The MIC in test [5] lay within 2 to 16 µg/mL (≈ 5.02 to 40.2 µM). In addition, in test [2], the “MIC APAE006 + PMBN” value is given as “B (MIC's of greater than 2.0 μg/mL to 16.0 μg/mL = B)”.
